These results are taken from publication PMC10794144, “A novel antibiotic class targeting the lipopolysaccharide transporter” (Nature, 2024).

Where two headings read alike, the source gives them in different places.

What all share (assay): Off-target screening (CEREP)
What all share (assay type): binding
Holding throughout (conditions): read-out: percent inhibition

For assay [1], the target named is T1, 5-HT transporter (Homo sapiens, UniProt P31645).
T1 construct: purchased Eurofins CEREP SA
T1 sequence (P31645 whole entry): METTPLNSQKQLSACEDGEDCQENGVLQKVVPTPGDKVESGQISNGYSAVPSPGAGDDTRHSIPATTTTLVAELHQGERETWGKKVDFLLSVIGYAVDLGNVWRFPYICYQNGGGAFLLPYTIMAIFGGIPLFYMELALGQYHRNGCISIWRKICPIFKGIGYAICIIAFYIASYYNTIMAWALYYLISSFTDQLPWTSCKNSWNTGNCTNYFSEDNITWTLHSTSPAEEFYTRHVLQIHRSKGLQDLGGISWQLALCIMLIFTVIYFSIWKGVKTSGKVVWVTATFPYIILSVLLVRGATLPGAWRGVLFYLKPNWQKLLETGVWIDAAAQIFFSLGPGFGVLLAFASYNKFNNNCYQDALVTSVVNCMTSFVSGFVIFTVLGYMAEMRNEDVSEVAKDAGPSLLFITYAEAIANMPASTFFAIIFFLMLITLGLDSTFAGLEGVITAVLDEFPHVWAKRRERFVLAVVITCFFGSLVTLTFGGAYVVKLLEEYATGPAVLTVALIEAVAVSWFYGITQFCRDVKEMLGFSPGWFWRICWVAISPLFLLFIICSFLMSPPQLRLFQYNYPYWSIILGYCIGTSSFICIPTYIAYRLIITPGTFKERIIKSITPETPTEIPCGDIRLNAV
The gist of the method: (§1)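 Test compound was screened at 10 µM as a single-point measurement in duplicate. Values are percent inhibition of radioligand signal for binding assays or of control enzymatic activity for enzyme assays.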

Assay [2] deals with T2, Adenosine A3 respetor (Homo sapiens, UniProt P0DMS8).
T2 construct: purchased Eurofins CEREP SA
T2 sequence (P0DMS8 1-318): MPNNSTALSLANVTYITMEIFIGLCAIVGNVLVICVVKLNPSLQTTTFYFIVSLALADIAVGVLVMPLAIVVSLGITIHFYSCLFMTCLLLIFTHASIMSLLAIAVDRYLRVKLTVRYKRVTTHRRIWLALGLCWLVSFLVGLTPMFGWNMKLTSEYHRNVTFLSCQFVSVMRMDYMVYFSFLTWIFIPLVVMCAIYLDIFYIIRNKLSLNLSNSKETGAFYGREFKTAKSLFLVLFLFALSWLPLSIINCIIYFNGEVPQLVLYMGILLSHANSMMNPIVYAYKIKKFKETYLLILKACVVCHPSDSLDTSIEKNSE
The gist of the method:
as §1

Assay [3] has as its target T3, Alpha1A-adrenoreceptor (Homo sapiens, UniProt P35348).
T3 construct: purchased Eurofins CEREP SA
T3 sequence (P35348 1-466): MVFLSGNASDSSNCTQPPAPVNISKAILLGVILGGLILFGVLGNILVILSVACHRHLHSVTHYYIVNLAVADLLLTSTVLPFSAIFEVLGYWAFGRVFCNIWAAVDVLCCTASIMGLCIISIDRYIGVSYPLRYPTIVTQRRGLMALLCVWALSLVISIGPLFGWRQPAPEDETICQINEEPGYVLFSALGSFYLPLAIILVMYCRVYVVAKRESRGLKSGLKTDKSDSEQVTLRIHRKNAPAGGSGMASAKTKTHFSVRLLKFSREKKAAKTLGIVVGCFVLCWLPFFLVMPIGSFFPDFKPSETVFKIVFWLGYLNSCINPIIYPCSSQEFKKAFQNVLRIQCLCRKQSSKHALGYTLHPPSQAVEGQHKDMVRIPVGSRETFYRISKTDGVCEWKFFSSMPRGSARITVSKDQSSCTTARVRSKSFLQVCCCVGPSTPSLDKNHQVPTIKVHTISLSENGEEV
The gist of the method: as §1

Assay [4] has as its target T4, Androgen receptor (Homo sapiens, UniProt P10275).
T4 construct: purchased Eurofins CEREP SA
T4 sequence (P10275 1-920): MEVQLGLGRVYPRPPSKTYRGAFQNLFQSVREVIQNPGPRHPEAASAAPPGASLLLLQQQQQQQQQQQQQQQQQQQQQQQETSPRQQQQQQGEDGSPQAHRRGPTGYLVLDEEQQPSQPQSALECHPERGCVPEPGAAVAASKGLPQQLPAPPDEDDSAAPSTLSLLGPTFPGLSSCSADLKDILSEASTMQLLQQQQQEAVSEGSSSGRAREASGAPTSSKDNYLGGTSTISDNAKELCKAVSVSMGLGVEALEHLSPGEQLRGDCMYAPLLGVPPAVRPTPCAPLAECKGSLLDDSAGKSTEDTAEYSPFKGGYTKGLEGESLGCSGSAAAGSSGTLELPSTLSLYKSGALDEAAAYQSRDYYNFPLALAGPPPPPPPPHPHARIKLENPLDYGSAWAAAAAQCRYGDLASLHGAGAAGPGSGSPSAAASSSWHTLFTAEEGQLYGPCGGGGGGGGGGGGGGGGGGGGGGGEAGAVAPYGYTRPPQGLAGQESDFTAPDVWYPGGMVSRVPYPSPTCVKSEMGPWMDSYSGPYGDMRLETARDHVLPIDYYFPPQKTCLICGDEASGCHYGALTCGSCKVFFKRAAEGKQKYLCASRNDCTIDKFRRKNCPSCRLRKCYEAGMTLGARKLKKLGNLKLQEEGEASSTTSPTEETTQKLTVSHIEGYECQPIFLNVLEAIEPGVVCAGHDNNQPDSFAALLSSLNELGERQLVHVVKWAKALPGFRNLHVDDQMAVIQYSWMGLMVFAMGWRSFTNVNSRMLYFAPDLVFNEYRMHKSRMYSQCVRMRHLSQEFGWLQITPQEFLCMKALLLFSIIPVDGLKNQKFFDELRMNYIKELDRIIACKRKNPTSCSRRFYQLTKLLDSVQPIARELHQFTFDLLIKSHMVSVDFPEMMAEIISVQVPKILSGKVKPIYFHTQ
In short, it runs like this: as §1

Assay [5] has as its target T5, Beta1-adrenoreceptor (Homo sapiens, UniProt P08588).
T5 construct: purchased Eurofins CEREP SA
The gist of the method: as §1

In assay [6] the target is T6, Beta2-adrenoreceptor (Homo sapiens, UniProt P07550).
T6 construct: purchased Eurofins CEREP SA
T6 sequence (P07550 whole entry): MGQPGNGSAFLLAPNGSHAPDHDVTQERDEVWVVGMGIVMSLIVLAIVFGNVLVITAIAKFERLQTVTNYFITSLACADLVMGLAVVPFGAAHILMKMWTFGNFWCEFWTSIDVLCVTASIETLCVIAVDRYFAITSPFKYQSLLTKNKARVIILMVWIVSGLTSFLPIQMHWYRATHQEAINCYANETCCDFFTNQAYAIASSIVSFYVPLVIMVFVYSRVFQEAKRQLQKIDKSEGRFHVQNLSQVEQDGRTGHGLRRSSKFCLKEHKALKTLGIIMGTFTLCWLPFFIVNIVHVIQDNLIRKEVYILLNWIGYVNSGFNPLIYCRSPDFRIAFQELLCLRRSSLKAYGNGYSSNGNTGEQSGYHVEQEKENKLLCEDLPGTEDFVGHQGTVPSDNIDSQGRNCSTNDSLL
In short, it runs like this: as §1

For assay [7], the target named is T7, Estrogen receptor alpha (Homo sapiens, UniProt P03372).
T7 construct: purchased Eurofins CEREP SA
T7 sequence (P03372 whole entry): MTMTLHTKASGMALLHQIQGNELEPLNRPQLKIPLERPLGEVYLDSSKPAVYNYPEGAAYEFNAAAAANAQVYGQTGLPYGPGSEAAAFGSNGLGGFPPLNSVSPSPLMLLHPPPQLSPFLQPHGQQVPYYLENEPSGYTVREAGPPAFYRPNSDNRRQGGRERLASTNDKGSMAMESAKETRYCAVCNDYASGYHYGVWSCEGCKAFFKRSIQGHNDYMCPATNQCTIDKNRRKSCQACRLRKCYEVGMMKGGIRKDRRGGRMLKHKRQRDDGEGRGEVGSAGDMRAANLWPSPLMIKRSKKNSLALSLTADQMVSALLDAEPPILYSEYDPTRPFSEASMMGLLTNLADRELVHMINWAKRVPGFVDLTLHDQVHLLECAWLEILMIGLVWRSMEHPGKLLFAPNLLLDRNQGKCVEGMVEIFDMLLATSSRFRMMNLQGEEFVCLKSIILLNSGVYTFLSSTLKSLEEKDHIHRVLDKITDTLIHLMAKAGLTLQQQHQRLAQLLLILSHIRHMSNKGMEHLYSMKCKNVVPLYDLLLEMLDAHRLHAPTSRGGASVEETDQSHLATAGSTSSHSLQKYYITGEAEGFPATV
In short, it runs like this:
as §1

For assay [8], the target named is T8, Histamine H1 receptor (Homo sapiens, UniProt P35367).
T8 construct: purchased Eurofins CEREP SA
T8 sequence (P35367 whole entry): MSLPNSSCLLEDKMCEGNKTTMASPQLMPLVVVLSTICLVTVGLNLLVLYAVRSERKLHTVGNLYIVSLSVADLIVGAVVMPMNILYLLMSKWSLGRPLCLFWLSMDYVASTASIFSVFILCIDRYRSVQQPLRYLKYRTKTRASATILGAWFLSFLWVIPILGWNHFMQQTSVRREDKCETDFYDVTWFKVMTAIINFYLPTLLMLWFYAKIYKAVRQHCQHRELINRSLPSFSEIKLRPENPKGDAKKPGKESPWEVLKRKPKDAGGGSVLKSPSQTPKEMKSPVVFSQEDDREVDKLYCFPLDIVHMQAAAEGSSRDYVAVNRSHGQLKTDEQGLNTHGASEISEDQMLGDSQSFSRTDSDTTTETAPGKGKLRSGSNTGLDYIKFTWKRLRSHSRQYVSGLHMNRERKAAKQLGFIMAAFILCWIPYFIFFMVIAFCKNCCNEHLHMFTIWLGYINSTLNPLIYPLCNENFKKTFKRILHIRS
In short, it runs like this: as §1

Assay [9] has as its target T9, Histamine H3 receptor (Homo sapiens, UniProt Q9Y5N1).
T9 construct: purchased Eurofins CEREP SA
In short, it runs like this: as §1

Assay [10] concerns the target T10, Kappa opioid receptor (Homo sapiens, UniProt P41145).
T10 construct: purchased Eurofins CEREP SA
The gist of the method: as §1

Assay [11] addresses T11, Mu opioid receptor (Homo sapiens, UniProt P35372).
T11 construct: purchased Eurofins CEREP SA
In short, it runs like this:
as §1

For assay [12], the target named is T12, Muscarinic receptor M2 (Homo sapiens, UniProt P08172).
T12 construct: purchased Eurofins CEREP SA
T12 sequence (P08172 1-466): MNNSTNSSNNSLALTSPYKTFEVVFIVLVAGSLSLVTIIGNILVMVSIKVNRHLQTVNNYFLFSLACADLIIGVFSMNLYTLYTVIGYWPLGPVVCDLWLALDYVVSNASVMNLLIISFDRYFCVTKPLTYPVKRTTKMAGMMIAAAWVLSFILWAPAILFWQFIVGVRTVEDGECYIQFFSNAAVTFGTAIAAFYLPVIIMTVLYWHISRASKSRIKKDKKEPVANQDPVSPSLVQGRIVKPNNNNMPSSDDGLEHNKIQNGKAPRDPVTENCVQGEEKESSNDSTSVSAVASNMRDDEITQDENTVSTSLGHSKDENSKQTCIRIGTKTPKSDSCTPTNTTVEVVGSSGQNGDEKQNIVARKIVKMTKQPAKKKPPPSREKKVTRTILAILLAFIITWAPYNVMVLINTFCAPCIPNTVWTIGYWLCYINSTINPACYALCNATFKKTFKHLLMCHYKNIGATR
The gist of the method:
as §1

Assay [13] has as its target T13, Norepinephrine transporter (Homo sapiens, UniProt P23975).
T13 construct: purchased Eurofins CEREP SA
The gist of the method: as §1

T5 sequence (P08588 whole entry): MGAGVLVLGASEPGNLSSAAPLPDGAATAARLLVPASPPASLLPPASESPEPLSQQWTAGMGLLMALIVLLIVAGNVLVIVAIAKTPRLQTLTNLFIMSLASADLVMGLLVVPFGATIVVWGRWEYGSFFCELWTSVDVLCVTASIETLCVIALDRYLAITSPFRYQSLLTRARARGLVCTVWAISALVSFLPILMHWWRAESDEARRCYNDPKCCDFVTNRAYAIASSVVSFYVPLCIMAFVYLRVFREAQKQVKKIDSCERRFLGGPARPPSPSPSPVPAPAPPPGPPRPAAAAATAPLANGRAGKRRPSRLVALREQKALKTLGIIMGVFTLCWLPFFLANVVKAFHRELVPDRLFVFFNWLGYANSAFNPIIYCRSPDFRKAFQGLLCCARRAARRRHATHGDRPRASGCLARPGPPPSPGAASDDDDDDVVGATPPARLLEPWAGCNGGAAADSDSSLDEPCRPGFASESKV
T11 sequence (P35372 whole entry): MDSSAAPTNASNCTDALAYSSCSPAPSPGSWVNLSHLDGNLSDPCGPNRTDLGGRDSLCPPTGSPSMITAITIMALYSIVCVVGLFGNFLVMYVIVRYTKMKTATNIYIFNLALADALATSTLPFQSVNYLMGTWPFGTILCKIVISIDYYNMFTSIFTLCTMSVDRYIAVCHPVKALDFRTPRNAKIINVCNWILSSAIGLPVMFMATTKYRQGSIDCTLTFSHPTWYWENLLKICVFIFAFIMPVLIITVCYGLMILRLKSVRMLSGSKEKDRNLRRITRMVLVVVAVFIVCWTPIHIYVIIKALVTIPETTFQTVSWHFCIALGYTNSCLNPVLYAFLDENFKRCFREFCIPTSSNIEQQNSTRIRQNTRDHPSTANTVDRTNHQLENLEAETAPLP
T13 sequence (P23975 whole entry): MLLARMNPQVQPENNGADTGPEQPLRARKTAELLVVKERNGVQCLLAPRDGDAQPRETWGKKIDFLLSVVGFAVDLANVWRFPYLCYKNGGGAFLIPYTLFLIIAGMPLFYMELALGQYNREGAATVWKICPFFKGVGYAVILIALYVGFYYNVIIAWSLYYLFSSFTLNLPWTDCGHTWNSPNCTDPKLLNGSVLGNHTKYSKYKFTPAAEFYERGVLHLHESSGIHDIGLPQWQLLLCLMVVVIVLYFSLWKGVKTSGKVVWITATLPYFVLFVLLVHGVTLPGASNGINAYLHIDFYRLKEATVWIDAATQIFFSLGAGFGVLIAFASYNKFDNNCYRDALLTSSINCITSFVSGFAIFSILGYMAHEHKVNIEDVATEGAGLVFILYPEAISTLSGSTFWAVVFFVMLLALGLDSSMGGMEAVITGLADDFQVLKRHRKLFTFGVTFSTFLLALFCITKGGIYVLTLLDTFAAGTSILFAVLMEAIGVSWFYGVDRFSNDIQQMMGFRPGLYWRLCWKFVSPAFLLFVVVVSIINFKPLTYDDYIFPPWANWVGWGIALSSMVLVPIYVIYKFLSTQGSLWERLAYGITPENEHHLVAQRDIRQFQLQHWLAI
T9 sequence (Q9Y5N1 whole entry): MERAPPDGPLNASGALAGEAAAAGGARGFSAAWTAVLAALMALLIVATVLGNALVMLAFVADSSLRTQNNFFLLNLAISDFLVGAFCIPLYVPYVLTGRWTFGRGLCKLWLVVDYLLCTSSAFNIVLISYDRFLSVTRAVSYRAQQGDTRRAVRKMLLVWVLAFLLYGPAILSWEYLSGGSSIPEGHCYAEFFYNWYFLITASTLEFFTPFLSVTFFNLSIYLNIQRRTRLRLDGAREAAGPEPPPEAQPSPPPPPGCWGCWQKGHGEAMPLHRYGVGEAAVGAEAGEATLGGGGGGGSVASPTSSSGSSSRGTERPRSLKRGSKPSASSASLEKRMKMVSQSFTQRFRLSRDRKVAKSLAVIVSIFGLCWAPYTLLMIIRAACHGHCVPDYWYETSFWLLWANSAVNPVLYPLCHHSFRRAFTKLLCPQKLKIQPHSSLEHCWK
T10 sequence (P41145 whole entry): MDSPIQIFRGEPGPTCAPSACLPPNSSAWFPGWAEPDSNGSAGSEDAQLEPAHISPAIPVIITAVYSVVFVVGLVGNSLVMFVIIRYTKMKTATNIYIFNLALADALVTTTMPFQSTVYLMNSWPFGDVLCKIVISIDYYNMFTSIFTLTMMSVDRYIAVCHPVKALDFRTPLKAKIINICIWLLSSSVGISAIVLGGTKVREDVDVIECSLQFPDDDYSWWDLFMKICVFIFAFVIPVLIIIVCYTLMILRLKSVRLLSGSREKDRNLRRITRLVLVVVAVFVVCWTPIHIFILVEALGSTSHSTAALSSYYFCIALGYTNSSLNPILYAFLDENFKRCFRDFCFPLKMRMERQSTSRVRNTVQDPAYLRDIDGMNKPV

Broadly, the inhibition is the drop in the measured response relative to a control, in per cent. Regarding `CN1C(=O)[C@H](CCCCN)NC(=O)[C@H](CCCN)NCc2cccnc2Sc2c(Cl)ccc(Cl)c2CNC(=O)[C@@H]1Cc1c[nH]c2ccccc12` [RO7075573], the inhibition at 10 µM in [1] was 16%; in [2] it was 11%; in [3], 22%; in assay [4], -4%; in [5] it was -2%; in [6], -7%. For the same compound, the inhibition at 10 µM in assay [7] was -3%; in assay [8], 4%; in assay [9], -4%; in assay [10] it was 26%; in assay [11], 21%; in [12] it was 11%. Further, the inhibition at 10 µM in [13] turned out to be 1%.
Consider `CN1C(=O)[C@H](CCCN)NC(=O)[C@H](CCCN)NCc2ccccc2Sc2ccccc2CNC(=O)[C@@H]1Cc1c[nH]c2ccccc12` [RO7036668], for which the inhibition at 10 µM in assay [1] (10 µM, duplicates) stood at 13%; in assay [2] (10 µM, duplicates) it was 32%; in [3] (10 µM, duplicates), 15%; in assay [4] (10 µM, duplicates), 6%; in assay [5] (10 µM, duplicates) it was 12%; in assay [6] (10 µM, duplicates) it was 3%. Also, the inhibition at 10 µM turned out to be 24% in assay [7] (10 µM, duplicates); 16% in assay [8] (10 µM, duplicates); 12% in [9] (10 µM, duplicates); 69% in [10] (10 µM, duplicates); 63% in assay [11] (10 µM, duplicates); 14% in assay [12] (10 µM, duplicates). Also, the inhibition at 10 µM in [13] (10 µM, duplicates) was 43%.
As for `CN1C(=O)[C@H](CCCCN)NC(=O)[C@H](CCCN)NCc2cccnc2Sc2cccc(-c3ccc(C(=O)O)cc3)c2CNC(=O)[C@@H]1Cc1c[nH]c2ccccc12` [zosurabalpin], the inhibition at 10 µM in assay [1] was 2%; in assay [2], 2%; in assay [3] it was 7%; in assay [4], -5%; in assay [5], 10%; in [6], 6%. For the same compound, the inhibition at 10 µM in assay [7] is 7%; in assay [8], -4%; in assay [9] it was 5%; in assay [10], 9%; in assay [11] it was 4%; in assay [12], 17%. For the same compound, the inhibition at 10 µM in [13] came to 12%.
Take `CN1C(=O)[C@H](CCCCN)NC(=O)[C@H](CCCN)NCc2cccnc2Sc2c(Cl)ccc(-c3ccc(C(=O)O)cc3)c2CNC(=O)[C@@H]1Cc1c[nH]c2ccccc12` [RO7202110]: the inhibition at 10 µM in assay [1] (10 µM, duplicates) was 13%; in [2] (10 µM, duplicates), 9%; in assay [3] (10 µM, duplicates), 7%; in assay [4] (10 µM, duplicates) it was 3%; in assay [5] (10 µM, duplicates), -2%; in [6] (10 µM, duplicates), -11%. Moreover, the inhibition at 10 µM in [7] (10 µM, duplicates) is -7%; in assay [8] (10 µM, duplicates), -3%; in [9] (10 µM, duplicates) it was 5%; in assay [10] (10 µM, duplicates) it was 32%; in assay [11] (10 µM, duplicates), 26%; in assay [12] (10 µM, duplicates), -1%. Further, the inhibition at 10 µM in assay [13] (10 µM, duplicates) was found to be 14%.
